Each structure is given as a SMILES string.

In US20240239767A1 (AstraZeneca AB, priority 2022, published 2024) one finds IC50 and Kd data, which are given here for 17 compounds.

Experiment [1] concerns the target T1, PCSK9 (Homo sapiens, UniProt Q8NBP7, G670E/V474I). The experiment can be described thus: biochemical.
Target sequence in this assay (Q8NBP7 with tags, fused parts or gaps V474I/G670E): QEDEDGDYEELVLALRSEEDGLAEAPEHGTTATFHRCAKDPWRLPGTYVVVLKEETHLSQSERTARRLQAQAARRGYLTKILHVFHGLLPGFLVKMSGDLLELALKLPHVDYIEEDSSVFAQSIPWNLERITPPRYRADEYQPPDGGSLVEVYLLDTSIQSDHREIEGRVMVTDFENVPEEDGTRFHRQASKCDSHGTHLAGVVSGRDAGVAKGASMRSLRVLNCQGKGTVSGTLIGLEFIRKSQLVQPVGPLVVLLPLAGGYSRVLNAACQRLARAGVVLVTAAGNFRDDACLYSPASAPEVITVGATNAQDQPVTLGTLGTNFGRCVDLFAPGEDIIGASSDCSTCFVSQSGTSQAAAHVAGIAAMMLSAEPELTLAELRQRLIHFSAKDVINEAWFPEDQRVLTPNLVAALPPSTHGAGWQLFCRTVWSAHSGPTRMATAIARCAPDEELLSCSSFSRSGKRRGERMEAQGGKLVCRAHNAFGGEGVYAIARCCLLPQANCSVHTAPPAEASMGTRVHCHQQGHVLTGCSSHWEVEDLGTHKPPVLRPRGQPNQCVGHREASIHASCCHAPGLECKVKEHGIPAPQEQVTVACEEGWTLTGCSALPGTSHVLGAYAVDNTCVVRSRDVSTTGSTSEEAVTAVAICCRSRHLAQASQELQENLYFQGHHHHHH
The target of experiment [2] is GSK3b (Glycogen synthase kinase-3 beta) (Homo sapiens, UniProt P49841). The experiment can be described thus: Assay 6 - GSK3b assay (ThermoFisher, FRET Z-Lyte). Type of experiment: biochemical. The settings on record: geometric mean; ATP Conc: 10.000 μM; read-out: Assay 6 (GSK3B FRET-Z-Lyte CR) GMean IC50 (μM) ATP Conc: 10.000. In a few lines:
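Z-Lyte FRET kinase assay: 0.22-0.92 ng GSK3β with 2 μM Ser/Thr 09 peptide in 50 mM HEPES pH 7.5, 10 mM MgCl2, 1 mM EGTA, 0.01% BRIJ-35, 60 min at room temperature, then 60 min development. Compounds in 1% DMSO, 10-point 3-fold dilutions from 10 μM; sigmoidal dose-response fit.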

Experiment [3] deals with T2, potassium ion channel hERG (human Ether-á-go-go-Related Gene) (Homo sapiens, UniProt Q12809).
T2 construct: expressed in transfected cells; host or cells: Chinese hamster ovary K1 (CHO)
In words: Assay 5 - hERG assay (SyncroPatch 384PE patch clamp, CHO cells). Type of experiment: cell-based. The settings on record: geometric mean, CHO cells over-expressing hERG, read-out: Assay 5 (hERG Hu CHO IF EPh CR-Syncro) GMean IC50. The method, boiled down: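 Automated whole-cell patch clamp at room temperature on CHO-K1 cells over-expressing hERG, using K-fluoride/escin internal solution (pH 7.2) and NMDG-containing external solution (pH 7.4). Compounds were tested in a 6-point cumulative format, 0.33% final DMSO. Wells accepted only with seal >30 MegaOhm, Z′>0.4 and current >0.2 nA.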

Experiment [4] addresses PCSK9 (Homo sapiens, UniProt Q8NBP7). The experiment can be described thus: Assay 2 - Biophysical human PCSK9 assay (SPR, Biacore). It counts as binding. Also noted: biotinylated human PCSK9 (31-692)-Avi-His6. The settings on record: geometric mean; SPR single-cycle kinetics, 30° C.; read-out: Assay 2 (PCSK9 BIAcore DBA CR) GMean Kd. How it is done:
The SPR binding experiments were performed on a Biacore S200 optical biosensor unit at 30° C. A Series S Sensor Chip SA that is designed to bind biotinylated molecules for interaction analysis in Biacore systems was equilibrated at room temperature prior to use. The running buffer for protein tethering and subsequent ligand binding experiments was 10 mM HEPES pH 7.4, 150 mM NaCl, 0.05% (v/v) Tween 20 pH 7.4.
For the surface tethering of PCSK9, biotinylated human PCSK9 (31-692)-Avi-His6 at a concentration of 0.5 mg/mL was used. Prior to the surface tethering, the surface was exposed to a solution of 50 mM NaOH, 500 mM NaCl via 3 consecutive injections of this solution with a contact time of 60 s and a flowrate of 10 μL min- to remove non-conjugated streptavidin. The PCSK9 protein was diluted to a concentration of 20 μg/mL using running buffer and injected with a contact time of 180-300 s and a flowrate of 10 μL min^−1 over a single flow channel (typically flow channel 2 or flow channel 4) with the aim to achieve protein capture levels of >5000 response units (RU). Remaining biotin binding sites were blocked via 2 consecutive injections of a 10 μM D-biotin solution in running buffer with a contact time of 60 s and a flowrate of 10 μL min^−1 over all flow-channels.
The binding experiments were all performed at a flow rate of 30 μL min^−1 and by employing the method of single-cycle kinetics. This approach involves the sequential injection of a compound concentration series without regeneration steps. A contact time between 90-150 s was selected, which was followed by a 40 min dissociation phase to allow for a proper estimation of the dissociation rate constant. Test compounds were delivered in DMSO at a concentration of 10 mM and a digital dispenser HP D300 was used to set up the compound concentration series using 6 concentrations. The tested concentrations have been 30, 100, 300, 1000, 3000 and 10000 nM. Prior to injecting any compound, the surfaces were equilibrated by injecting running buffer over them in three separate pulses. The data collection rate was set to 10 Hz.
The raw sensorgrams of the compound injections were first subjected to reference subtraction (subtracting the signal from flow channel 1 and/or 3 from the signal from channels 2 and/or 4 respectively) and then blank subtraction (subtracting the signal from injecting DMSO controls from the reference subtracted data). The resulting double-referenced sensorgrams were then fitted using a 1:1 binding interaction model using the manufactures software package to extract kinetic- and affinity data.
(In general: Surface plasmon resonance follows binding to a sensor surface in real time, without labels.)

Experiment [5] has as its target T1, PCSK9. In words: cell-based.
Target sequence in this assay (Q8NBP7 31-152): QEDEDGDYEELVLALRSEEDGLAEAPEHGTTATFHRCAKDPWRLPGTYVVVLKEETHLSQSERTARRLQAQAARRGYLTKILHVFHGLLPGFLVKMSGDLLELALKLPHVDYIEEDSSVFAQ
Target sequence in this assay (Q8NBP7 153-692 V474I/G670E): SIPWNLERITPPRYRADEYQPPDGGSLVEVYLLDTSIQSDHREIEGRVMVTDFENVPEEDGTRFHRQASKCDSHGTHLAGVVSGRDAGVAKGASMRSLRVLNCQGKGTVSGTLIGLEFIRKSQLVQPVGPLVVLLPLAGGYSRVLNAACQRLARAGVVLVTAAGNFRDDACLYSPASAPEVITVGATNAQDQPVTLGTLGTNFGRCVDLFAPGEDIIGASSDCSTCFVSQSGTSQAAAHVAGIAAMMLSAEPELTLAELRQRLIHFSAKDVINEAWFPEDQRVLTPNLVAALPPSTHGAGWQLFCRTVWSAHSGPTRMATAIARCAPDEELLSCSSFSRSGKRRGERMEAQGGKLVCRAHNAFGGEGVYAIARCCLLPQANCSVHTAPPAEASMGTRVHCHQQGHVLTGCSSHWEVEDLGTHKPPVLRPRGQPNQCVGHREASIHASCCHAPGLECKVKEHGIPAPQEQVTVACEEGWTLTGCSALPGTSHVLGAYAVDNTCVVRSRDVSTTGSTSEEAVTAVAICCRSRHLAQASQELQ
Description: This assay measures for PCSK9 antagonist activity based on a test compound's capacity to restore LDL-C uptake in HepG2 cells. The assay is based on exogenous PCSK9 and LDL-C complexed with a pH-sensitive dye. Outside the cells, at neutral pH, the pHrodo Red-LDL is dimly fluorescent but upon LDLR mediated endocytosis it fluoresces brightly. PCSK9 traffics the LDLR to intracellular degradation and reduces uptake of LDL-C. Inhibition of PCSK9 reduces LDLR degradation and the increased LDL-C uptake is quantified by fluorescence microscopy.
Cell medium: MEM supplemented with 10% FBS, 1× NEAA and Sodium Pyruvate
Assay medium: OptiMem supplemented with penicillin/streptomycin
Cells: HepG2 (ATCC #HB-8065)
Cryopreserved HepG2 cells were thawed in assay medium and centrifuged for 5 min at 250 g. Supernatant was discarded and the cell pellet resuspended in cell medium and counted with a Nucleocounter. Cells were again centrifuged 5 min at 250 g and the pellet was resuspended to 500000 cells/mL in assay medium. • 2. 20 μL of above cell mix was dispensed into black pclear TC treated 384 well plates with Multidrop Combi and left at room temperature for 20 minutes. • 3. Plates were incubated at 37° C., 5% CO2 for 24 h
Test compounds were prepared in concentration response in DMSO with a half-log dilution factor in DMSO in Echo 384 LDV plates starting at 10 mM. • 2. 30 nL of above test compounds were dispensed with Echo 655 to cells for a top concentration of 10 μM • 3. […] Plates were incubated at 37° C., 5% CO2 for 24 h
10 μL pHrodo Red-LDL in assay medium was dispensed to cells with Multidrop Combi for 6 μg/mL • 2. Plates were incubated at 37° C., 5% CO2 and imaged with the Incucyte S3 after 4 h and 24 h
Image data was processed using Incucyte 2021, a software to identify cells and red fluorescent intensity. Screener was used to further process data. Data was normalized as % effect of the signal between median values of the on-plate controls of DMSO and 100 nM Evolocumab according to the formula % effect=−100*(x−DMSO)/(Evolocumab−DMSO) where x equals the measured signal. Concentration response data of the normalized values were fitted using a four-parameter logistic fit.

Chain of GSK3b (Glycogen synthase kinase-3 beta) (P49841 whole entry): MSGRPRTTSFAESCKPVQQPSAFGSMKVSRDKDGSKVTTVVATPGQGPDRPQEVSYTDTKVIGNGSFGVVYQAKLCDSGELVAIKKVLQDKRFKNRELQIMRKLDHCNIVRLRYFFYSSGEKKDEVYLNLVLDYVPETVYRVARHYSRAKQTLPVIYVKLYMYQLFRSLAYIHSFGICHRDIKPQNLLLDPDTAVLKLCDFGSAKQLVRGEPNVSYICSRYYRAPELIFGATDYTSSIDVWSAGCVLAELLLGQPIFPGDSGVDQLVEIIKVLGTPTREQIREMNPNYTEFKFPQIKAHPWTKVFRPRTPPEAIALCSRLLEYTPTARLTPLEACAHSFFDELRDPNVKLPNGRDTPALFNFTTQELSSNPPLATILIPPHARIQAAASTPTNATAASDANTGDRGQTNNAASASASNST
T2 sequence (Q12809 whole entry): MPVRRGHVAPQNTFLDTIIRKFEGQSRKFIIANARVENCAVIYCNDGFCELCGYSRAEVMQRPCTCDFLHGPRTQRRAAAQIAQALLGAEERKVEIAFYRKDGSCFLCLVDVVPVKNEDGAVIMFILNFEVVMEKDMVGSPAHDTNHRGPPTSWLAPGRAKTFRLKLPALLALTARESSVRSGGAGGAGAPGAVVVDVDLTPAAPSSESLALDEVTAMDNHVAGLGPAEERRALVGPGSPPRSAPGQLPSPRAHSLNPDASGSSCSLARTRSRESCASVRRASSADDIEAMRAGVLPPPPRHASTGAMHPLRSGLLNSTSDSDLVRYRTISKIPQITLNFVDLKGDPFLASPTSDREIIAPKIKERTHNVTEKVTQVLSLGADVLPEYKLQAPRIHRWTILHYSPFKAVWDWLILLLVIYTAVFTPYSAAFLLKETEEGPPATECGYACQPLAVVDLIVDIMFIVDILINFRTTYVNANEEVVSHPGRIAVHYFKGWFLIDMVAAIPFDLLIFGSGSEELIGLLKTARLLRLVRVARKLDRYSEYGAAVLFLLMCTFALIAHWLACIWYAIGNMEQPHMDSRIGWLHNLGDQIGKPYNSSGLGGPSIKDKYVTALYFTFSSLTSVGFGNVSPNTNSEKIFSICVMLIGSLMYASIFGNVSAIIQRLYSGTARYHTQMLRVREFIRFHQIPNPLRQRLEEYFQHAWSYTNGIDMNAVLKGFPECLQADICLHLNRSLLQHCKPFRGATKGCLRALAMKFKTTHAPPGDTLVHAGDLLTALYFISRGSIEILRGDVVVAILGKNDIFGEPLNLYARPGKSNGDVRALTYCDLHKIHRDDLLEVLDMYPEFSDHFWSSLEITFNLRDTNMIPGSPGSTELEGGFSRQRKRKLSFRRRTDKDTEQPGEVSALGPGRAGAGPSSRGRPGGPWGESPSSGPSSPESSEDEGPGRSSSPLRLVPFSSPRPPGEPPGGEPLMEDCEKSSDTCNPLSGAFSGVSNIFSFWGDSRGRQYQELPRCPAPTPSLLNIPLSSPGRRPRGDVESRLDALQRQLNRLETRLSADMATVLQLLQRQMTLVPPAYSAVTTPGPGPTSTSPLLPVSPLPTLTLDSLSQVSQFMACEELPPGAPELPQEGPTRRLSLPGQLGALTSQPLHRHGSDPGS
Chain of PCSK9 (Homo sapiens, UniProt Q8NBP7) (Q8NBP7 31-692): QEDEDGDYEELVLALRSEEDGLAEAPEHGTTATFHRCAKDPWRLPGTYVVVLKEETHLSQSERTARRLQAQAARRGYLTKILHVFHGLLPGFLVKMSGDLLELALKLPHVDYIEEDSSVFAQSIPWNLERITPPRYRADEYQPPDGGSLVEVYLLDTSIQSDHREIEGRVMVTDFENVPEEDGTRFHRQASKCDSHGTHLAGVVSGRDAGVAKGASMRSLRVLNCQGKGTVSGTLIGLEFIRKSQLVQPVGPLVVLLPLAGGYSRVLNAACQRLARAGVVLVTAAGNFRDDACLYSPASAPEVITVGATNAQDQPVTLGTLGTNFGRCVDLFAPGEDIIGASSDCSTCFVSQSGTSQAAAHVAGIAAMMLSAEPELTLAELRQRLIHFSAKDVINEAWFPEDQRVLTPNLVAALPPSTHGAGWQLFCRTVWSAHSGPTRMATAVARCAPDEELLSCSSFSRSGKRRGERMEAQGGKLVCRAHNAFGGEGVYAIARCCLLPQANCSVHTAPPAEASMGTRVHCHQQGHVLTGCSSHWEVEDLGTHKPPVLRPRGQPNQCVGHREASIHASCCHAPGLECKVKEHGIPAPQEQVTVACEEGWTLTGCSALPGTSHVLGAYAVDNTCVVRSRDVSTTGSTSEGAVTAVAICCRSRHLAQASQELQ

As to `O=c1ccccn1-c1ccc(N[C@H]2CC[C@H](Nc3nc4cccnc4o3)C2)nc1` [Example 11, 6′-(((1S,3S)-3-(Oxazolo[5,4-b]pyridin-2-ylamino)cyclopentyl)amino)-2H-[1,3′-bipyridin]-2-one], the half-inhibitory concentration (IC50) was 28 nM against PCSK9 [1], over 10 µM in experiment [2] and over 40000 nM in experiment [3]. For the same compound, the Kd at PCSK9 [4] was 24 nM.
The matching figures for `O=c1ccccn1-c1ccc(N[C@H]2CC[C@H](Nc3nc4ccccc4[nH]3)C2)nc1` [Example 10, 6′-(((1S,3S)-3-((1H-Benzo[d]imidazol-2-yl)amino)cyclopentyl)amino)-2H-[1,3′-bipyridin]-2-one]: 2470 nM, over 10 µM, 4000 nM and 1550 nM.
Take `O=c1ccccn1-c1ccc(N[C@H]2CC[C@H](Nc3nc4ncccc4s3)C2)nc1` [Example 20, 6′-(((1S,3S)-3-(Thiazolo[4,5-b]pyridin-2-ylamino)cyclopentyl)amino)-2H-[1,3′-bipyridin]-2-one]: the results for the IC50 (against PCSK9 [1]; in experiment [2]; in experiment [3]) were 603 nM, over 10 µM and over 40100 nM, respectively. Further, the dissociation constant (Kd) on PCSK9 [4] was 672 nM.
As for `O=c1ccccn1-c1ccc(N[C@H]2CC[C@H](Nc3nc4ccc(CO)cc4o3)C2)nc1` [Example 4, 6′-(((1S,3S)-3-((6-(Hydroxymethyl)benzo[d]oxazol-2-yl)amino)cyclopentyl)amino)-2H-[1,3′-bipyridin]-2-one], the IC50 on PCSK9 [1] is 32.2 nM; in experiment [2] it was over 10 µM; in experiment [3], over 40000 nM. In addition, the Kd on PCSK9 [4] was found to be 49 nM.
As to `COc1cccc(F)c1-c1ccc(N[C@H]2CC[C@H](Nc3nc4cccnc4[nH]3)C2)nc1` [Example 67, (1S,3S)—N^1-(5-(2-Fluoro-6-methoxyphenyl)pyridin-2-yl)-N^3-(3H-imidazo[4,5-b]pyridin-2-yl)cyclopentane-1,3-diamine], the values for the concentration for half-maximal inhibition (IC50) (against PCSK9 [1]; in experiment [2]; in experiment [3]) were 18.1 nM, over 10 µM and 3980 nM, respectively. For the same compound, the dissociation constant (Kd) on PCSK9 [4] amounted to 57 nM.
As for `Cn1cccc(-c2cnc(N[C@H]3CC[C@H](Nc4nc5cccnc5[nH]4)C3)nc2)c1=O` [Example 39, 3-(2-(((1S,3S)-3-((3H-Imidazo[4,5-b]pyridin-2-yl)amino)cyclopentyl)amino)pyrimidin-5-yl)-1-methylpyridin-2(1H)-one], the half-inhibitory concentration (IC50) at PCSK9 [1] is 6.1 nM; in experiment [2] it was over 10 µM; against PCSK9 [5] it was 93 nM; in experiment [3], over 40000 nM.
`N#Cc1ccc(=O)n(-c2ccc(N[C@H]3CC[C@H](Nc4nc5cccnc5[nH]4)C3)nc2)c1` [Example 43, 6′-(((1S,3S)-3-((3H-Imidazo[4,5-b]pyridin-2-yl)amino)cyclopentyl)amino)-2-oxo-2H-[1,3′-bipyridine]-5-carbonitrile]: the IC50 at PCSK9 [1] was 4.2 nM; in experiment [2] it was over 10 µM; against PCSK9 [5], 200 nM; in experiment [3] it was over 40000 nM.
For `O=c1c(OC(F)F)cccn1-c1ccc(N[C@H]2CC[C@H](Nc3nc4cccnc4s3)C2)nc1` [Example 81, 3-(Difluoromethoxy)-6′-(((1S,3S)-3-(thiazolo[5,4-b]pyridin-2-ylamino)cyclopentyl)amino)-2H-[1,3′-bipyridin]-2-one], the IC50 at PCSK9 [1] was 1.5 nM; in experiment [2] it was over 10 µM; against PCSK9 [5] it was 108 nM; in experiment [3] it was 6120 nM.
In the case of `O=c1c(OC(F)(F)F)cccn1-c1ccc(N[C@H]2CC[C@H](Nc3nc4cccnc4[nH]3)C2)nc1` [Example 63, 6′-(((1S,3S)-3-((3H-Imidazo[4,5-b]pyridin-2-yl)amino)cyclopentyl)amino)-3-(trifluoromethoxy)-2H-[1,3′-bipyridin]-2-one], the IC50 is 2.1 nM against PCSK9 [1], over 10 µM in experiment [2], 51 nM against PCSK9 [5] and over 40000 nM in experiment [3].
Take `COc1cccn(-c2ccc(N[C@H]3CC[C@H](Nc4nc5cccnc5[nH]4)C3)nc2)c1=O` [Example 41, 6′-(((1S,3S)-3-((3H-Imidazo[4,5-b]pyridin-2-yl)amino)cyclopentyl)amino)-3-methoxy-2H-[1,3′-bipyridin]-2-one]: the IC50 at PCSK9 [1] is 3.5 nM; in experiment [2], 0.066 µM; against PCSK9 [5] it was 186 nM; in experiment [3], over 40000 nM.
With `O=c1[nH]c2ccccc2n1-c1ccc(N[C@H]2CC[C@H](Nc3nc4cccnc4[nH]3)C2)nc1` [Example 35, 1-(6-(((1S,3S)-3-((3H-Imidazo[4,5-b]pyridin-2-yl)amino)cyclopentyl)amino)pyridin-3-yl)-1,3-dihydro-2H-benzo[d]imidazol-2-one], the half-maximal inhibitory concentration (IC50) was determined as 0.7 nM against PCSK9 [1], 7.61 µM in experiment [2], 108 nM at PCSK9 [5] and 27400 nM in experiment [3].
In the same order, the values of `O=c1c(C(F)(F)F)cccn1-c1ccc(N[C@H]2CC[C@H](Nc3nc4cccnc4[nH]3)C2)nc1` [Example 64, 6′-(((1S,3S)-3-((3H-Imidazo[4,5-b]pyridin-2-yl)amino)cyclopentyl)amino)-3-(trifluoromethyl)-2H-[1,3′-bipyridin]-2-one] are 1.7 nM, over 10 µM, 99 nM and over 40000 nM.
For `O=c1ccc(OC(F)F)cn1-c1ccc(N[C@H]2CC[C@H](Nc3nc4cccnc4o3)C2)nc1` [Example 78, 5-(Difluoromethoxy)-6′-(((1S,3S)-3-(oxazolo[5,4-b]pyridin-2-ylamino)cyclopentyl)amino)-2H-[1,3′-bipyridin]-2-one], the IC50 on PCSK9 [1] was 18.9 nM; in experiment [2] it was over 10 µM; against PCSK9 [5] it was 367 nM; in experiment [3], 39600 nM.
Turning to `O=c1ccc(Cl)cn1-c1ccc(N[C@H]2CC[C@H](Nc3nc4cccnc4o3)C2)nc1` [Example 13, 5-Chloro-6′-(((1S,3S)-3-(oxazolo[5,4-b]pyridin-2-ylamino)cyclopentyl)amino)-2H-[1,3′-bipyridin]-2-one], the IC50 was 13.3 nM at PCSK9 [1], over 10 µM in experiment [2], 1600 nM against PCSK9 [5] and 27800 nM in experiment [3].
For the compound `O=c1c(Cl)cccn1-c1ccc(N[C@H]2CC[C@H](Nc3nc4cccnc4[nH]3)C2)nc1` [Example 42, 6′-(((1S,3S)-3-((3H-Imidazo[4,5-b]pyridin-2-yl)amino)cyclopentyl)amino)-3-chloro-2H-[1,3′-bipyridin]-2-one], the IC50 is 0.9 nM against PCSK9 [1], 6.14 µM in experiment [2], 77 nM against PCSK9 [5] and over 40000 nM in experiment [3].
Take `O=c1ccccn1-c1ccc(N[C@H]2CC[C@H](Nc3nc4c(Cl)c(Cl)cnc4[nH]3)C2)nc1` [Example 50, 6′-(((1S,3S)-3-((6,7-Dichloro-3H-imidazo[4,5-b]pyridin-2-yl)amino)cyclopentyl)amino)-2H-[1,3′-bipyridin]-2-one]: the IC50 was determined as 10.5 nM on PCSK9 [1], 0.024 µM in experiment [2], 190 nM on PCSK9 [5] and 32000 nM in experiment [3].
`O=c1c(OC(F)F)cccn1-c1ccc(N[C@H]2CC[C@H](Nc3nc4cccnc4o3)C2)nc1` [Example 79, 3-(Difluoromethoxy)-6′-(((1S,3S)-3-(oxazolo[5,4-b]pyridin-2-ylamino)cyclopentyl)amino)-2H-[1,3′-bipyridin]-2-one]: the IC50 is 4.1 nM on PCSK9 [1], over 10 µM in experiment [2], 123 nM against PCSK9 [5] and 4570 nM in experiment [3].

For orientation: IC50 means the midpoint of a concentration-inhibition curve. What is called Kd is a measure of binding affinity in units of concentration.
